Laboratory results published in paper PMC11123841, “Discovery and Synthesis of Hydroxy-L-Proline Blockers of the Neutral Amino Acid Transporters SLC1A4 (ASCT1) and SLC1A5 (ASCT2)” (Molecules, 2024).

Target: T1, SLC1A4 (Homo sapiens, UniProt P43007)
T1 construct: expressed in transfected cells; host or cells: Xenopus laevis oocytes (cRNA injection)
T1 sequence (P43007 1-532): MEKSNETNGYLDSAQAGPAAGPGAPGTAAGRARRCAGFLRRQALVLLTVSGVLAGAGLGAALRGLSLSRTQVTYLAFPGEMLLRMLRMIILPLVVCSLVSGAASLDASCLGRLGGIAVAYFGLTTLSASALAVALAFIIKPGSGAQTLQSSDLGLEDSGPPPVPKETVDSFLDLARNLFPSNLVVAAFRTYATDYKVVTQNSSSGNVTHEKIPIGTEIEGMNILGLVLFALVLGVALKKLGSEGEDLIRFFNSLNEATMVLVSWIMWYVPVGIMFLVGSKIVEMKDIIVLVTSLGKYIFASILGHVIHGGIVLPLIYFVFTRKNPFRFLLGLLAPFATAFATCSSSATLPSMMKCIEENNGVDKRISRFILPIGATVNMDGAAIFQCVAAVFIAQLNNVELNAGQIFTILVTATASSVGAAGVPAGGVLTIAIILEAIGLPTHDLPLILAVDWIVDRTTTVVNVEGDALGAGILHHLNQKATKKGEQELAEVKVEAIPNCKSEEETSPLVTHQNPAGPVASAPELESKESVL
Assay: [3H]L-alanine heteroexchange (trans-stimulation) in preloaded oocytes
Type: cell-based
Conditions: 3 µM BPOHP, 1 mM L-alanine
Experimental: Uptake was halted by washing 3 times with 4 °C ND96 buffer. Oocytes were then lysed in 0.1% Triton X-100, and radioactivity was counted via liquid scintillation. Dose response curves were generated by fitting fractional inhibition (I) to the expression I = Imax × [inhibitor]/([inhibitor] + IC50).

In the case of `O=C(O)[C@H]1NC[C@@H](OCc2ccc(-c3ccccc3)cc2)[C@@H]1O` [14e], the “[3H]L-alanine exchange” value is reported as “No exchange was detected”.
